# Tests used:
# Assay type in all cases: cell-based
# HIV = test: Anti-HIV assay, recombinant virus with Renilla reporter gene in MT-2 cells; settings: Human immunodeficiency virus 1, MT2, read-out: IC50 VIH MT-2 μM
# Source text: Assessment of in vitro antiviral activity is usually performed to estimate parameters of antiviral potency and efficacy represented by the percentage of inhibition of HIV activity or IC50. The assay utilized is based on the use of recombinant viruses in which the nef gene, […] for in vitro HIV replication, has been replaced by a Renilla reporter gene so that viral replication can be quantified directly (García-Perez J et al, J Med Virol. 2007 February; 79(2):127-37). The assay was performed infecting MT-2 cells or PHA-activated PBMCs/IL-2 with viral supernatants obtained previously. The study was development in AIDS Immunopathology Unit, Nacional Center of Microbiology, Institute of Health Carlos 111, Majadahonda, Madrid, Spain.
# All data are expressed as percentage relative to a control with DMSO at the same concentration. Antiviral activity and toxicity curves were performed to the compound at different concentrations.
# A. baumannii = test: Kirby-Bauer disk diffusion susceptibility test; settings: 300 μg/disc
# Procedure: (§1) Bacterial strains, from clinical origin, were supplied by the National Center for Microbiology, Institute of Health Carlos III (Majadahonda, Madrid). They are detailed in Table 1.
# (§2) Bacterial cells suspension in sterile saline was prepared from a culture of 24-72 h, depending on bacterial species, in Mueller-Hinton Agar with 5% sheep blood. Each suspension was adjusted to a fixed size inoculum of 1-5×10^8 CFU/ml with a spectrophotometer (Ferraro, MJ National Committee for Clinical Laboratory Standards. 2000).
# (§3) Kirby-Bauer disk diffusion susceptibility test protocol was utilized to determine the sensitivity or resistance of pathogenic bacteria against the compounds and others antibiotics. The absence of growth around the disks is an indirect measure of the ability of this compound to inhibit an organism (Kirby, W., et al., Antibiotics Annu. 1956-1957:892). After 18 to 72 hours of incubation at 37° C., with or without CO2, under aerobic or anaerobic conditions, depending on the bacterial species, halo of growth inhibition were obtained and evaluated.
# (§4) Interpretation of susceptibility and resistance was based on the presence or absence of a zone of inhibition surrounding the disk. Kirby-Bauer disk diffusion susceptibility test is a common method which uses antibiotic-impregnated wafers to test whether bacteria are affected by antibiotics. The size of the zone of inhibition depends on how effective the antibiotic is at stopping the growth of the bacterium. A stronger antibiotic will create a larger zone, because a lower concentration of the antibiotic is enough to stop growth.
# (§5) All compounds were tested at 300 μg/disc.
# P. aeruginosa = test: Kirby-Bauer disk diffusion susceptibility test; settings: 300 μg/disc
# Procedure: as §1, §2, §3, §4, §5
# [1] = Cellular viability, CellTiter Glo; settings: human; MT-2 cells; concentration required to kill 50% of cells; read-out: CC50 VIH MT-2 μM
# Procedure: All assays for assessing anti-HIV activity were taken in parallel to determine cellular viability of the culture in the presence or absence of different concentrations of the isolated molecule. It was followed exactly the same methodology as in the anti-HIV assay except with the addition of complete DMEM medium instead of supernatant viral, in the same proportion, and the detection of the viability was performed with the viability detection kit CellTiter Glo (Promega), following manufacturer instructions. Viability is directly proportional to the luciferase activity obtained. All data are expressed as percentage relative to a control with DMSO at the same concentration. Antiviral activity and toxicity curves were performed to the compound at different concentrations.
# A. fumigatus = test: Antifungal disk diffusion susceptibility test (CLSI M44); settings: Aspergillus fumigatus, A. fumigatus
# Procedure: (§6) Filamentous fungi and yeasts strains, from clinical origin, were supplied by Microbiology Service from The Princess Hospital, Madrid. They are detailed in Table IX.
# (§7) Filamentous fungi and yeast cells suspensions in distilled water was prepared from a culture of 24-48 h, depending on species, in Sabouraud agar. Each suspension was adjusted to a fixed size inoculum of 1-5×10^8 CFU/ml with a spectrophotometer (Ferraro, MJ National Committee for Clinical Laboratory Standards. 2000).
# (§8) Antifungal susceptibility tests were developed following the standardized methodology detailed in document CLSI: M44-4: Method for Antifungal Disk diffusion susceptibility testing of yeasts consisting of disk diffusion on agar Muller-Hinton (supplemented with 2% glucose).
# S. cerevisiae = test: as above; settings: Saccharomyces cerevisiae, S. cerevisiae
# Procedure: as §6, §7, §8
# C. parapsilosis = test: as above; settings: Lodderomyces parapsilosis, C. parapsilosis
# Procedure: as §6, §7, §8
# C. lusitaniae = test: as above; settings: Clavispora lusitaniae, C. lusitaniae
# Procedure: as §6, §7, §8
# A. terreus = test: as above; settings: Aspergillus terreus, A. terreus
# Procedure: as §6, §7, §8
# A. niger = test: as above; settings: Aspergillus niger, A. niger
# Procedure: as §6, §7, §8
# C. guillermondii = test: as above; settings: C. guillermondii
# Procedure: as §6, §7, §8
# C. tropicalis = test: as above; settings: Candida tropicalis, C. tropicalis
# Procedure: as §6, §7, §8
# C. albicans = test: as above; settings: Candida albicans, C. albicans
# Procedure: as §6, §7, §8
# A. flavus = test: as above; settings: Aspergillus flavus, A. flavus
# Procedure: as §6, §7, §8
smiles,measurement,setting,value
NNC(=O)C(=O)NNc1ccccc1 [MSG-119],IC50,HIV,7.11 µM
same,Activity detected (mm),A. baumannii,20 mm
same,Activity detected (mm),P. aeruginosa,15 mm
same,CC50,[1],> 100 µM
same,zone of inhibition at 150 µg/disc,A. fumigatus; 150 μg/disc,22 mm
same,zone of inhibition at 500 µg/disc,A. fumigatus; 500 μg/disc,> 40 mm
same,zone of inhibition at 150 µg/disc,S. cerevisiae; 150 μg/disc,26 mm
same,zone of inhibition at 500 µg/disc,S. cerevisiae; 500 μg/disc,35 mm
same,zone of inhibition at 150 µg/disc,C. parapsilosis; 150 μg/disc,15 mm
same,zone of inhibition at 500 µg/disc,C. parapsilosis; 500 μg/disc,> 40 mm
same,zone of inhibition at 150 µg/disc,C. lusitaniae; 150 μg/disc,< 10 mm
same,zone of inhibition at 500 µg/disc,C. lusitaniae; 500 μg/disc,20 mm
same,zone of inhibition at 150 µg/disc,A. terreus; 150 μg/disc,20 mm
same,zone of inhibition at 500 µg/disc,A. terreus; 500 μg/disc,> 40 mm
same,zone of inhibition at 150 µg/disc,A. niger; 150 μg/disc,24 mm
same,zone of inhibition at 500 µg/disc,A. niger; 500 μg/disc,> 40 mm
same,zone of inhibition at 150 µg/disc,C. guillermondii; 150 μg/disc,12 mm
same,zone of inhibition at 500 µg/disc,C. guillermondii; 500 μg/disc,> 40 mm
same,zone of inhibition at 150 µg/disc,C. tropicalis; 150 μg/disc,20 mm
same,zone of inhibition at 500 µg/disc,C. tropicalis; 500 μg/disc,> 40 mm
same,zone of inhibition at 150 µg/disc,C. albicans; 150 μg/disc,21 mm
same,zone of inhibition at 500 µg/disc,C. albicans; 500 μg/disc,24 mm
same,zone of inhibition at 150 µg/disc,A. flavus; 150 μg/disc,18 mm
same,zone of inhibition at 500 µg/disc,A. flavus; 500 μg/disc,> 40 mm

# — patent publication US11584710B2, “Compounds for treating infections” (HORITZONTS TECNOLOGICS HUNGARY KORLÁTOLT FELELOSSÉGU …, priority 2017, dated 2023)
